Each structure is given as a SMILES string.

Usually Kd stands for the equilibrium constant for the complex coming apart. Read a low Kd as higher affinity.

Test [1] deals with ANT4' (aminoglycoside nucleotidyl transferase 4') (Staphylococcus aureus, UniProt P05057, T130K). The test is described as follows: biochemical.
Test [2] deals with ANT4' (aminoglycoside nucleotidyl transferase 4') (Staphylococcus aureus, UniProt P05057). The test is described as follows: X-ray crystal structure. The test is classed as binding. The conditions noted are these: binary complex, 0.1-0.2 M MgCl2, pH 7-8; active site.
Test [3] deals with ANT4' (aminoglycoside nucleotidyl transferase 4') (Staphylococcus aureus, UniProt P05057, E52D/T130K). The test is described as follows: biochemical.

Turning to `NC[C@@H]1O[C@H](O[C@H]2[C@@H](O)[C@H](O[C@@H]3[C@@H](O)[C@H](N)C[C@H](N)[C@H]3O[C@H]3O[C@H](CN)[C@@H](O)[C@H](O)[C@H]3N)O[C@@H]2CO)[C@H](N)[C@@H](O)[C@@H]1O` [neomycin], the Kd in test [1] was found to be 340 ± 30 nM; in test [3] it was 870 ± 80 nM. The X-ray crystal structure entry in test [2] is listed as “A binary neomycin complex was also determined in the wild-type ANT4’ enzyme”.

Source of the values: PMC10797667 (ACS catalysis, 2020).
